Results taken from US4879278A, “Isolation and structural elucidation of the cytostatic linear depsipeptide dolastatin 15” (priority 1989, dated 1989).
Values after ≈ are worked out from the molar mass of the structure shown. Where two headings read alike, the source gives them in different places. Non-standard residues stand in square brackets, D forms with d. Residues, ends and D or L forms follow the SMILES beside them. *: point of attachment. X3 = COC1=CC(=O)N(C(=O)[C@@H](O*)C(C)C)[C@H]1Cc1ccccc1; NMe2Val = CC(C)[C@@H](C(=O)*)N(C)C; NMeV = CN[C@H](C(=O)O)C(C)C

Experiments:
[1] = tested on: P388 lymphocytic leukemia cell line; test: P388 in vitro cell line growth inhibition; format: cell-based, murine
Description: Because of the dolastatin's potency, the sea hare seems to require only vanishingly small quantities (about 1 mg each from 100 kg), making isolation and structural elucidation of these peptides exceptionally challenging. Later another substance was isolated and determined to be a unique linear pentapeptide and was denominated "dolastatin 10". […] The PS System is an excellent predictor of activity against various types of human neoplasms (See: Vendetti et al, Lloydia, 30, 332 et seq (1967) and references cited therein.)

[2] = tested on: P388 lymphocytic leukemia cell line; settings: PS leukemia; cited from earlier work

Compound: COC1=CC(=O)N(C(=O)[C@@H](OC(=O)[C@@H]2CCCN2C(=O)[C@@H]2CCCN2C(=O)[C@H](C(C)C)N(C)C(=O)[C@@H](NC(=O)[C@H](C(C)C)N(C)C)C(C)C)C(C)C)[C@H]1Cc1ccccc1 [Dolastatin 15] (NMe2Val-V[NMeV]PP-X3)
- ED50 [1]: 0.0024 µg/mL (≈ 0.00287 µM)

Compound: CC[C@H](C)[C@@H]([C@@H](CC(=O)N1CCC[C@H]1[C@H](OC)[C@@H](C)C(=O)N[C@@H](Cc1ccccc1)c1nccs1)OC)N(C)C(=O)[C@@H](NC(=O)[C@H](C(C)C)N(C)C)C(C)C [dolastatin 10]
- ED50 [2]: 46 µg/mL (≈ 58.6 µM)
